Where two headings read alike, the source gives them in different places.
Columns and labels:
Pim1 kinase = Pim1 kinase (Homo sapiens, UniProt P11309); assay: Pim1 ATP depletion assay; assay type: biochemical; settings: Pim1 ATP depletion assay;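 further: Luciferase-luciferin luminescence readout of residual ATP after PIM1 transfers phosphate to a peptide substrate, 40 µM ATP added, reaction run to roughly half ATP consumption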
Pim2 kinase = Pim2 kinase (Homo sapiens, UniProt Q9P1W9); assay: Pim2 ATP depletion assay; assay type: biochemical;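 further: Luciferase-based luminescent readout of ATP remaining after PIM2 phosphorylates a BAD peptide, final 5 nM enzyme, 4 µM ATP, 10 µM peptide, 2.5% DMSO, run to roughly half ATP consumption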
Sequence of Pim2 kinase (Q9P1W9 whole entry): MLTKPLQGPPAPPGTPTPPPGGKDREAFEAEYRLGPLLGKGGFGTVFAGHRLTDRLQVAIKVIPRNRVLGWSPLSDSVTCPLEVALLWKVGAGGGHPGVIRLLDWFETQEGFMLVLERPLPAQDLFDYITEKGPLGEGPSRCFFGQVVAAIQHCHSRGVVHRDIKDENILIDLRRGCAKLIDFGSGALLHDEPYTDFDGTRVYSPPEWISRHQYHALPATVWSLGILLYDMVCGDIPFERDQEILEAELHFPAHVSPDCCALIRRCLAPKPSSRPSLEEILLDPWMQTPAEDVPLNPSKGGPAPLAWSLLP

Pim3 kinase = Pim3 kinase (Homo sapiens, UniProt Q86V86); assay: Pim3 ATP depletion assay; assay type: biochemical
KDR kinase = KDR kinase (Homo sapiens, UniProt P35968); assay: KDR AlphaScreen assay; settings: KDR IC50 (μM)
Sequence of KDR kinase (P35968 20-1356): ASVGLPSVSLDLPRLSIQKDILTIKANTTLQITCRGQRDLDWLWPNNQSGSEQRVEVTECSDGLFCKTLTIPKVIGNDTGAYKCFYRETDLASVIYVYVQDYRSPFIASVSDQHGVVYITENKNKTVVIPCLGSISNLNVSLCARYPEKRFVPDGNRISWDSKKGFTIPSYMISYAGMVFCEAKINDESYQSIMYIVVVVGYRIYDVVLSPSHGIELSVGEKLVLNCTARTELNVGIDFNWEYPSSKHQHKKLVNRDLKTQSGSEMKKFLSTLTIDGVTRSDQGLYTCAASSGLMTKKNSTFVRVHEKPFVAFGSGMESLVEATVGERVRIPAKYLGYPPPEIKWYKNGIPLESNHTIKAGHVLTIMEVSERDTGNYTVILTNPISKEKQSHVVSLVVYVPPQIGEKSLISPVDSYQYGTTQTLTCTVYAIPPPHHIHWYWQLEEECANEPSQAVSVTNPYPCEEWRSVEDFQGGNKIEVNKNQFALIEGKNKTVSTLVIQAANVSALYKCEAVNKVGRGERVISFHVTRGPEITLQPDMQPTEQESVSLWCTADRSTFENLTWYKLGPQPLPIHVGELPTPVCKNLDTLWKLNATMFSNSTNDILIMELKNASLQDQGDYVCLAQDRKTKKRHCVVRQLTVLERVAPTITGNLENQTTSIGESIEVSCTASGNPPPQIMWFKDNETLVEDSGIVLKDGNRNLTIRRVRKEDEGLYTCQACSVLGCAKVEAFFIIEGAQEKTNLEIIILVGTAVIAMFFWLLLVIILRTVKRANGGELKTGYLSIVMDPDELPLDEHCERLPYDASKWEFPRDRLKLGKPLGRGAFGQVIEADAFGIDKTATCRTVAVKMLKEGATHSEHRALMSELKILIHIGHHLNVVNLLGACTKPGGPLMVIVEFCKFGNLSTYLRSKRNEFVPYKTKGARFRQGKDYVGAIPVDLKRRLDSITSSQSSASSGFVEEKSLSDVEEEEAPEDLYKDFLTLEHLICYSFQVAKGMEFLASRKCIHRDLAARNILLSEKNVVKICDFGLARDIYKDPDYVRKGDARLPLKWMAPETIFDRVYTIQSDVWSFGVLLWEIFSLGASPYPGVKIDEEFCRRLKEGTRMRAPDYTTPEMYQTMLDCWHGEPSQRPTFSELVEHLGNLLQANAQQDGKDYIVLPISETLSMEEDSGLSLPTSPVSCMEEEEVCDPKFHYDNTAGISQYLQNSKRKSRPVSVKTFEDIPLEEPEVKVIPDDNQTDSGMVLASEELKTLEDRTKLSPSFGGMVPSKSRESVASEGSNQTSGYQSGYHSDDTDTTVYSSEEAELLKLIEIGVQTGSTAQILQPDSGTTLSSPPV

Sequence of Pim1 kinase (P11309 whole entry): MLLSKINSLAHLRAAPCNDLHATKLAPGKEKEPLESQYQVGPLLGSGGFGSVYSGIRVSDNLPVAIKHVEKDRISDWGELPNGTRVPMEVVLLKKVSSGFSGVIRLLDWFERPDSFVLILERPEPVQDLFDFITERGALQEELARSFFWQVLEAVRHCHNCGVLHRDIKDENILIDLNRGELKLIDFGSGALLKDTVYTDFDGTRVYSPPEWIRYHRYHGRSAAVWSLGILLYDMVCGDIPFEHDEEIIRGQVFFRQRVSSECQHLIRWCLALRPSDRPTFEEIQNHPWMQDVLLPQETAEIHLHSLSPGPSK

Structure (SMILES) | IC50 (Pim1 kinase; read-out: IC50 (μM) PIM1) [µM] | IC50 (Pim2 kinase; read-out: IC50 (μM) PIM2) [µM] | IC50 (Pim3 kinase; read-out: IC50 (μM) PIM3) [µM] | IC50 (KDR kinase) [µM] | IC50 (Pim1 kinase; read-out: PIM1 IC50) [µM] | IC50 (Pim2 kinase; read-out: PIM2 IC50) [µM] | IC50 (Pim3 kinase; read-out: PIM3 IC50) [µM]
N[C@H]1CCCN(c2ccncc2NC(=O)c2cccc(-c3ccccc3)n2)C1 [Example 487, 6-Phenyl-pyridine-2-carboxylic acid (3-amino-3,4,5,6-tetrahydro-2H-[1,4′]bipyridinyl-3′-yl)-amide] | < 1 | < 1 | < 1 | 10 to 25 | – | – | –
COc1ccc(F)c(-c2ncc(N)c(C(=O)Nc3cnccc3N3CCC[C@H](N)C3)n2)c1 [Example 549, 5-Amino-2-(2-fluoro-5-methoxy-phenyl)-pyrimidine-4-carboxylic acid (3-amino-3,4,5,6-tetrahydro-2H-[1,4′]bipyridinyl-3′-yl)-amide] | – | – | – | 10 to 25 | < 1 | < 1 | < 1
Nc1ccc(-c2cnc(N)c(OCC(F)(F)F)n2)nc1C(=O)Nc1cnccc1N1CCC[C@H](N)C1 [Example 519, 3-Amino-6-[5-amino-6-(2,2,2-trifluoro-ethoxy)-pyrazin-2-yl]-pyridine-2-carboxylic acid (3-amino-3,4,5,6-tetrahydro-2H-[1,4′]bipyridinyl-3′-yl)-amide] | < 1 | < 1 | < 1 | 10 to 25 | – | – | –
Cc1nc(N)cc(-c2ccncc2NC(=O)c2nc(-c3ccccc3)ncc2N)n1 [Example 268, 5-Amino-2-phenyl-pyrimidine-4-carboxylic acid [4-(6-amino-2-methyl-pyrimidin-4-yl)-pyridin-3-yl]-amide] | < 1 | < 1 | < 1 | 1 to 10 | – | – | –
Nc1ccc(-c2ccccc2F)nc1C(=O)Nc1cnccc1-c1ccnc(O)c1 [Example 614, 3-amino-6-(2-fluorophenyl)-N-(2′-hydroxy-4,4′-bipyridin-3-yl)pyridine-2-carboxamide] | – | – | – | 1 to 10 | < 1 | < 1 | < 1
Nc1cc(-c2ccncc2NC(=O)c2nc(-c3c(F)cccc3F)ccc2N)ncn1 [Example 629, 3-amino-N-[4-(6-aminopyrimidin-4-yl)pyridin-3-yl]-6-(2,6-difluoro-phenyl)pyridine-2-carboxamide] | – | – | – | 10 to 25 | < 1 | < 1 | < 1
Nc1cnc(-c2ccccc2)nc1C(=O)Nc1cnccc1N1CCC[C@H](O)C1 [Example 650, 5-Amino-2-phenyl-pyrimidine-4-carboxylic acid (3-hydroxy-3,4,5,6-tetrahydro-2H-[1,4′]bi-pyridinyl-3′-yl)-amide] | – | – | – | 10 to 25 | < 1 | < 1 | < 1
CC(C)NC(=O)c1ccc(F)c(-c2ccc(N)c(C(=O)Nc3cnccc3N3CCCC(O)(C(F)(F)F)C3)n2)c1 (stereo not shown) [Example 163, 3-Amino-6-(2-fluoro-5-isopropylcarbamoyl-phenyl)-pyridine-2-carboxylic acid (3-hydroxy-3-trifluoromethyl-3,4,5,6-tetrahydro-2H-[1,4′]bi-pyridinyl-3′-yl)-amide] | < 1 | < 1 | < 1 | 10 to 25 | – | – | –
Nc1ccc(-c2cncc(OCC3CC3)n2)nc1C(=O)Nc1cnccc1N1CCC[C@H](N)C1 [Example 521, 3-Amino-6-(6-cyclopropylmethoxy-pyrazin-2-yl)-pyridine-2-carboxylic acid (3-amino-3,4,5,6-tetrahydro-2H-[1,4′]bipyridinyl-3′-yl)-amide] | < 1 | < 1 | < 1 | 1 to 10 | – | – | –
Cc1cc(-c2ccncc2NC(=O)c2nc(-c3c(F)ccc(OC(C)C)c3F)ccc2N)cc(N)n1 [Example 538, 3-Amino-6-(2,6-difluoro-3-isopropoxy-phenyl)-pyridine-2-carboxylic acid (2′-amino-6′-methyl-[4,4′]bipyridinyl-3-yl)-amide] | – | – | – | 10 to 25 | < 1 | < 1 | < 1
CC1(N)CCCN(c2ccncc2NC(=O)c2nc(-c3ccccc3)ncc2N)C1 (stereo not shown) [Example 261, 5-Amino-2-phenyl-pyrimidine-4-carboxylic acid (3-amino-3-methyl-3,4,5,6-tetrahydro-2H-[1,4′]bipyridinyl-3′-yl)-amide] | < 1 | < 1 | < 1 | 1 to 10 | – | – | –
Nc1cc(F)c(-c2c(F)ccc(OCc3ccccc3)c2F)nc1C(=O)Nc1cnccc1N1CCC[C@H](N)C1 [Example 505, 3-Amino-6-(3-benzyloxy-2,6-difluoro-phenyl)-5-fluoro-pyridine-2-carboxylic acid (3-amino-3,4,5,6-tetrahydro-2H-[1,4′]bipyridinyl-3′-yl)-amide] | < 1 | < 1 | < 1 | 10 to 25 | – | – | –
Nc1cnc(-c2ccc(Cl)cc2F)nc1C(=O)Nc1cnccc1N1CCC[C@H](N)C1 [Example 547, 5-Amino-2-(4-chloro-2-fluoro-phenyl)-pyrimidine-4-carboxylic acid (3-amino-3,4,5,6-tetrahydro-2H-[1,4′]bipyridinyl-3′-yl)-amide] | – | – | – | 10 to 25 | < 1 | < 1 | < 1
Cc1cnc(O)cc1-c1ccncc1NC(=O)c1nc(-c2c(F)cccc2F)ccc1N [Example 612, 3-amino-6-(2,6-difluorophenyl)-N-(2′-hydroxy-5′-methyl-4,4′-bipyridin-3-yl)pyridine-2-carboxamide] | – | – | – | 1 to 10 | < 1 | 1 to 10 | < 1
CSc1nc(N)cc(-c2ccncc2NC(=O)c2nc(-c3cc(C(=O)NC(C)C)ccc3F)ccc2N)n1 [Example 534, 3-Amino-6-(2-fluoro-5-isopropylcarbamoyl-phenyl)-pyridine-2-carboxylic acid [4-(6-amino-2-methylsulfanyl-pyrimidin-4-yl)-pyridin-3-yl]-amide] | < 1 | < 1 | < 1 | 1 to 10 | – | – | –
CCCOc1ccc(F)c(-c2ncc(N)c(C(=O)Nc3cnccc3N3CCC[C@H](N)C3)n2)c1 [Example 550, 5-Amino-2-(2-fluoro-5-propoxy-phenyl)-pyrimidine-4-carboxylic acid (3-amino-3,4,5,6-tetrahydro-2H-[1,4′]bipyridinyl-3′-yl)-amide] | – | – | – | 10 to 25 | < 1 | < 1 | < 1
Nc1ccc(C2CCCC2)nc1C(=O)Nc1cnccc1N1CCC[C@H](N)C1 [Example 644, 3-Amino-6-cyclopentyl-pyridine-2-carboxylic acid (3-amino-3,4,5,6-tetrahydro-2H-[1,4′]bipyridinyl-3′-yl)-amide] | – | – | – | 10 to 25 | < 1 | < 1 | < 1
CC(C)COc1cncc(-c2ccc(N)c(C(=O)Nc3cnccc3N3CCC[C@H](N)C3)n2)n1 [Example 523, 3-Amino-6-(6-isobutoxy-pyrazin-2-yl)-pyridine-2-carboxylic acid (3-amino-3,4,5,6-tetrahydro-2H-[1,4′]bipyridinyl-3′-yl)-amide] | < 1 | < 1 | < 1 | 10 to 25 | – | – | –
N[C@H]1CCCN(c2ccncc2NC(=O)c2cccc(-c3ccccc3F)n2)C1 [Example 455, 6-(2-Fluoro-phenyl)-pyridine-2-carboxylic acid (3-amino-3,4,5,6-tetrahydro-2H-[1,4′]bipyridinyl-3′-yl)-amide] | < 1 | < 1 | < 1 | 10 to 25 | – | – | –
